Earlier results as cited in PMC11866498 (Cell Reports Medicine, 2025).

Legend:
[1] = ref Previous studies
[2] = ref Previous studies; remark: listed apart in the source

water solubility [1]: inadequate
in vivo stability [2]: inadequate
SMILES: C[C@H]1COC2=C1C(=O)C(=O)c1c2ccc2c1CCCC2(C)C [CTS, cryptotanshinone]
